Measurements reported in patent publication US20090047243A1, “COMBINATIONS FOR THE TREATMENT OF B-CELL PROLIFERATIVE DISORDERS” (priority 2007, published 2009).
Structures can show the parent of a compound that is named as a salt. Where two headings read alike, the source gives them in different places.

Tests used:
[1] = system: human multiple myeloma cells (MM.1S); test: Anti-proliferation assay (ATPLite, 72 h); assay type: cell-based; set-up: key to synergy score / synergy (score), PDEi × HE-NECA: S = lnfX·lnfY·ΣIdata(Idata−ILoewe), volume over Loewe additivity; details: for inhibition at 1.17 µM: ADAC 1.17 μM; for inhibition at 3.51 µM: ADAC 3.51 μM; for inhibition at 10.5 µM: ADAC 10.5 μM; for inhibition at 31.6 µM: ADAC 31.6 μM; for synergy (score), PDEi × HE-NECA: 6×6 cross of PDE inhibitor or PDE inhibitor mixture with HE-NECA
Summary of the method: (§1)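 ATPLite luminescence readout; ANBL6 medium + 10 ng/ml IL-6. Single agents tested at 12 concentrations, 2- or 3-fold serial dilutions. % inhibition vs untreated-well mean.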

[2] = system: RPMI-8226, H929, MM.1S and MM.1R MM cell lines; test: Anti-proliferation assay, statements across MM cell lines; assay type: cell-based, human; details: for activity and synergy of adenosine receptor agonists: RPMI-8226, H929, MM.1S and MM.1R MM cell lines; for rank of synergy scores among PDE inhibitors: crossed with adenosine receptor agonists
Description: The MM.1S, MM.1R, H929, MOLP-8, EJM, INA-6, ANBL6, KSM-12-PE, OPM2, and RPMI-8226 multiple myeloma cell lines, as well as the Burkitt's lymphoma cell line GA-10 and the non-Hodgkin's lymphoma cell lines Farage, SU-DHL6, and Karpas 422 were cultured at 37° C. and 5% CO2 in RPMI-1640 media supplemented with 10% FBS. ANBL6 and INA-6 culture media was also supplemented with 10 ng/ml IL-6. The OCI-ly10 cell line was cultured using RPMI-1640 media supplemented with 20% human serum. MM.1S, MM.1R, OCI-ly10, Karpas 422, and SU-DHL6 cells were provided by the Dana Farber Cancer Institute. H929, RPMI-8226, GA-10, and Farage cells were from ATCC (Cat #'s CCL-155, CRL-9068, CRL-2392 and CRL-2630 respectively). MOLP-8, EJM, KSM-12-PE, and OPM2 were from DSMZ. The ANBL6 and INA-6 cell lines were provided by the M. D. Anderson Cancer Research Center.
Compounds were prepared in DMSO at 1000× the highest desired concentration. Master plates were generated consisting of serially diluted compounds in 2- or 3-fold dilutions in 384-well format. For single agent dose response curves, the master plates consisted of 9 individual compounds at 12 concentrations in 2- or 3-fold dilutions. For combination matrices, master plates consisted of individual compounds at 6 or 9 concentrations at 2- or 3-fold dilutions.
Cells were added to 384-well plates 24 hours prior to compound addition such that each well contained 2000 cells in 35 μL of media. Master plates were diluted 100× (1 μL into 100 μL) into 384-well dilution plates containing only cell culture media. 4.5 μL from each dilution plate was added to each assay plate for a final dilution of 1000×. To obtain combination data, two master plates were diluted into the assay plates. Following compound addition, assay plates were kept at 37° C. and 5% CO2 for 72 hours. Thirty microliters of ATPLite (Perkin Elmer) at room temperature was then added to each well. Final amount of ATP was quantified within 30 minutes using ATPLite luminescent read-out on an Envision 2103 Multilabel Reader (Perkin Elmer). Measurements were taken at the top of the well using a luminescence aperture and a read time of 0.1 seconds per well.
The Loewe additivity model was used to quantify combination effects. Combinations were ranked initially by Additivity Excess Volume, which is defined as ADD Volume=ΣCX, CY (Idata−ILoewe). where ILoewe(CX, CY) is the inhibition that satisfies (CX/ECX)+(CY/ECY)=1, and ECX,Y are the effective concentrations at ILoewe for the single agent curves. A “Synergy Score” was also used, where the Synergy Score S=log fX log fY ΣIdata(Idata−ILoewe), summed over all non-single-agent concentration pairs, and where log fX,Y is the natural logarithm of the dilution factors used for each single agent. This effectively calculates a volume between the measured and Loewe additive response surfaces, weighted towards high inhibition and corrected for varying dilution factors. An uncertainty σS was calculated for each synergy score, based on the measured errors for the Idata values and standard error propagation.

[3] = system: RPMI-8226 multiple myeloma cell line; test: Anti-proliferation assay (ATPLite, 72 h); assay type: cell-based, human; set-up: key: S = lnfX·lnfY·ΣIdata(Idata−ILoewe), volume over Loewe additivity
Summary of the method: as §1

[4] = system: human multiple myeloma cells (MM.1R); test: Anti-proliferation assay (ATPLite, 72 h); assay type: cell-based; set-up: key: S = lnfX·lnfY·ΣIdata(Idata−ILoewe), volume over Loewe additivity
Summary of the method: as §1

[5] = Homo sapiens, MM1.S, 10 ng/mL IL-6, Trequinsin conc. (μM), read-out: percent inhibition of ATP in MM.1S cells
[6] = Homo sapiens, MM1.S, no IL-6, Trequinsin conc. (μM), read-out: percent inhibition of ATP in MM.1S cells
[7] = in combination with adenosine receptor agonist CGS-21680, RPMI 8226
[8] = in combination with adenosine receptor agonist HE-NECA, RPMI-8226
[9] = in combination with adenosine receptor agonist regadenoson, RPMI 8226
[10] = PDE inhibitor crossed with (S) ENBA, MM.1S
[11] = PDE inhibitor crossed with Chloro-IB-MECA, MM.1S
[12] = PDE inhibitor crossed with HE-NECA, MM.1S
[13] = in combination with adenosine receptor agonist CGS-21680, MM.1S
[14] = in combination with adenosine receptor agonist HE-NECA, MM.1S
[15] = in combination with adenosine receptor agonist regadenoson, MM.1S
[16] = in combination with adenosine receptor agonist CGS-21680, MM.1R
[17] = in combination with adenosine receptor agonist regadenoson, MM.1R

`NCCNC(=O)Cc1ccc(NC(=O)Cc2ccc(Nc3ncnc4c3ncn4[C@@H]3O[C@H](CO)[C@@H](O)[C@H]3O)cc2)cc1` [ADAC, N-(4-(2-((4-(2-((2-aminoethyl)amino)-2-oxoethyl)phenyl)amino)-2-oxoethyl)phenyl)-Adenosine] was tested, and the inhibition at 1.17 µM [1, 5] was 79%, the inhibition at 3.51 µM [1, 5] was 81% and the inhibition at 10.5 µM [1, 5] was 85%. It also gave an inhibition at 31.6 µM [1, 5] of 83%, an inhibition at […] ([1]; Homo sapiens, MM1.S, 10 ng/mL IL-6, ADAC […], Trequinsin conc. (μM), read-out: percent inhibition of ATP in MM.1S cells) of 61% and an inhibition at 1.975 µM ([1]; Homo sapiens, MM1.S, ADAC 1.975 μM, Trequinsin Hydrochloride conc. (μM), read-out: Percent inhibition of ATP in MM.1S cells) of 37%. The inhibition at 3.95 µM ([1]; Homo sapiens, MM1.S, ADAC 3.95 μM, Trequinsin Hydrochloride conc. (μM), read-out: Percent inhibition of ATP in MM.1S cells) was 49%, the inhibition at 15.8 µM ([1]; Homo sapiens, MM1.S, ADAC 15.8 μM, Trequinsin Hydrochloride conc. (μM), read-out: Percent inhibition of ATP in MM.1S cells) was 66% and the inhibition at 31.6 µM ([1]; Homo sapiens, MM1.S, Trequinsin Hydrochloride conc. (μM), read-out: Percent inhibition of ATP in MM.1S cells) was 60%. The inhibition at 1.17 µM [1, 6] was 49%, the inhibition at 3.51 µM [1, 6] was 57% and the inhibition at 10.5 µM [1, 6] was 66%. The inhibition at 31.6 µM [1, 6] was 60% and the “activity and synergy of adenosine receptor agonists” value [2] was “active and synergistic”.
In the case of `CCCCC#Cc1nc(N)c2ncn([C@@H]3O[C@H](C(=O)NCC)[C@@H](O)[C@H]3O)c2n1` [HE-NECA, hexynyladenosine-5′-N-ethylcarboxamide], the “percent inhibition of ATP in MM.1S cells” value ([1]; HE-NECA 0.0251 μM alone (trequinsin 0), 72 h) is reported as 78%, the “percent inhibition of ATP in MM.1S cells” value ([1]; HE-NECA 0.0752 μM alone (trequinsin 0), 72 h) is reported as 79% and the “percent inhibition of ATP in MM.1S cells” value ([1]; HE-NECA 0.226 μM alone (trequinsin 0), 72 h) is reported as 83%. The “percent inhibition of ATP in MM.1S cells” value ([1]; HE-NECA 0.677 μM alone (trequinsin 0), 72 h) was 80%, the “percent inhibition of ATP in MM.1S cells” value ([1]; HE-NECA 2.03 μM alone (trequinsin 0), 72 h) was 86% and the “activity and synergy of adenosine receptor agonists” value [2] was “active and synergistic”.
`COc1cc2c(cc1OC)-c1cc(=Nc3c(C)cc(C)cc3C)n(C)c(=O)n1CC2` [Trequinsin hydrochloride, 2,3,6,7-tetrahydro-9,10-dimethoxy-3-methyl-2-((2,4,6-trimethylphenyl)imino)-4H-pyrimido(6,1-a)isoquinolin-4-one] was tested, and the synergy score ([3]; in combination with adenosine receptor agonist ADAC, RPMI-8226) was 0.9183, the synergy score [3, 7] was 0.72 and the synergy score [3, 8] was 0.793. For the same molecule, the synergy score [3, 9] was 0.4, the “synergy (score), PDEi × HE-NECA” value ([1]; MM.1S) was 5.7 and the inhibition at 0.377 µM ([1]; Homo sapiens, MM1.S, 10 ng/mL IL-6, Trequinsin 0.377 μM, HE-NECA conc. (nM), read-out: percent inhibition of ATP in MM.1S cells) was -1.2%. It also gave an inhibition at 1.13 µM ([1]; Homo sapiens, MM1.S, 10 ng/mL IL-6, Trequinsin 1.13 μM, HE-NECA conc. (nM), read-out: percent inhibition of ATP in MM.1S cells) of 5.1%, an inhibition at 3.39 µM ([1]; Homo sapiens, MM1.S, 10 ng/mL IL-6, Trequinsin 3.39 μM, HE-NECA conc. (nM), read-out: percent inhibition of ATP in MM.1S cells) of 8.9% and an inhibition at 10.2 µM ([1]; Homo sapiens, MM1.S, 10 ng/mL IL-6, Trequinsin 10.2 μM, HE-NECA conc. (nM), read-out: percent inhibition of ATP in MM.1S cells) of 26%. The inhibition at 30.5 µM ([1]; Homo sapiens, MM1.S, 10 ng/mL IL-6, Trequinsin 30.5 μM, HE-NECA conc. (nM), read-out: percent inhibition of ATP in MM.1S cells) was 95%, the inhibition at 0.377 µM ([1]; Homo sapiens, MM1.S, 72 h, trequinsin 0.377 μM alone (HE-NECA 0), 72 h, read-out: Percent inhibition of ATP in MM.1S cells) was 7.4% and the inhibition at 1.13 µM ([1]; Homo sapiens, MM1.S, 72 h, trequinsin 1.13 μM alone (HE-NECA 0), 72 h, read-out: Percent inhibition of ATP in MM.1S cells) was 0.96%. It also gave an inhibition at 3.39 µM ([1]; Homo sapiens, MM1.S, 72 h, trequinsin 3.39 μM alone (HE-NECA 0), 72 h, read-out: Percent inhibition of ATP in MM.1S cells) of 10%, an inhibition at 10.17 µM ([1]; Homo sapiens, MM1.S, 72 h, trequinsin 10.17 μM alone (HE-NECA 0), 72 h, read-out: Percent inhibition of ATP in MM.1S cells) of 26% and an inhibition at 30.5 µM ([1]; Homo sapiens, MM1.S, 72 h, trequinsin 30.5 μM alone (HE-NECA 0), 72 h, read-out: Percent inhibition of ATP in MM.1S cells) of 68%. The synergy score [1, 10] was 4.56, the synergy score ([1]; PDE inhibitor crossed with ADAC, MM.1S) was 6.62 and the synergy score [1, 11] was 5.95. The synergy score [1, 12] was 7.85, the synergy score ([1]; in combination with adenosine receptor agonist ADAC, MM.1S) was 6.619 and the synergy score [1, 13] was 6.26. It also gave a synergy score [1, 14] of 7.235, a synergy score [1, 15] of 1.85 and a synergy score ([4]; in combination with adenosine receptor agonist ADAC, MM.1R) of 6.47. The synergy score [4, 16] was 6.57, the synergy score ([4]; in combination with adenosine receptor agonist HE-NECA, MM.1R) was 4.329 and the synergy score [4, 17] was 2.8. For the same molecule, the “rank of synergy scores among PDE inhibitors” value [2] was “highest synergy scores”.
`COc1cc(-c2ccc(=O)[nH]n2)ccc1OC(F)F` [Zardaverine, 6-(4-(difluoromethoxy)-3-methoxyphenyl)-3(2H)-Pyridazinone] showed a synergy score [3, 7] of 0.13, a synergy score [3, 8] of 0.43 and a synergy score [3, 9] of 0.52. The “synergy (score), PDEi × HE-NECA” value ([1]; MM.1S) was 4.39, the inhibition at 1.89 µM ([1]; Homo sapiens, MM1.S, Zardaverine 1.89 μM, Cl-IB-MECA conc. (μM), read-out: Percent inhibition of ATP in MM.1S cells) was 0.11% and the inhibition at 3.79 µM ([1]; Homo sapiens, MM1.S, Zardaverine 3.79 μM, Cl-IB-MECA conc. (μM), read-out: Percent inhibition of ATP in MM.1S cells) was -1.8%. For the same molecule, the inhibition at 7.58 µM ([1]; Homo sapiens, MM1.S, Zardaverine 7.58 μM, Cl-IB-MECA conc. (μM), read-out: Percent inhibition of ATP in MM.1S cells) was 13%, the inhibition at 15.2 µM ([1]; Homo sapiens, MM1.S, Zardaverine 15.2 μM, Cl-IB-MECA conc. (μM), read-out: Percent inhibition of ATP in MM.1S cells) was 5.1% and the inhibition at 30.3 µM ([1]; Homo sapiens, MM1.S, Zardaverine 30.3 μM, Cl-IB-MECA conc. (μM), read-out: Percent inhibition of ATP in MM.1S cells) was 14%. The synergy score [1, 10] was 2.59, the synergy score [1, 11] was 3.71 and the synergy score [1, 12] was 4.39. It also gave a synergy score [1, 13] of 3.64, a synergy score [1, 14] of 4.39 and a synergy score [1, 15] of 1.45. For the same molecule, the synergy score [4, 16] was 2.15, the synergy score [4, 17] was 1.49 and the “rank of synergy scores among PDE inhibitors” value [2] was “highest synergy scores”.
